Results taken from US20130131161A1, “METHODS AND COMPOSITIONS FOR CARDIOVASCULAR DISEASES AND CONDITIONS” (priority 2009, published 2013).
Several values for one entry are separate records, joined by “and”; a condition that tells them apart may be missing. Identical values can stand only once.

Test system: Human umbilical vein endothelial cells (HUVECs)
Assay: eNOS activity analysis: NO, ONOO− and NO/ONOO− release from HUVECs of 50 genotyped donors in response to LA-419 (Example 2)
Assay type: cell-based
Conditions: for Fold difference NO/ONOO− (mean ± sd) / Fold difference ONOO− (mean ± sd) / Fold difference NO (mean ± sd): Caucasian, (LA-419 5 μM)/(control); for % Change NO (mean ± sd) / % Change NO/ONOO− (mean ± sd) / % Change ONOO− (mean ± sd): LA-419 1 μM vs control
Description: Concurrent measurements of NO and ONOO^− were carried out with tandem electrochemical nanosensors combined into one working unit with a total diameter of 200-500 nm (FIG. 1). Their design was based on previously developed and well-characterized chemically modified carbon-fiber technology (Malinski and Taha, 1992; Lvovich and Scheeline, 1997). Each of the nanosensors was made by depositing a sensing material on the tip of a carbon fiber (length 4-5 μm, diameter 0.2-0.5 μm). The fibers were sealed with nonconductive epoxy and electrically connected to copper wires with conductive silver epoxy. A conductive film of polymeric nickel (II) tetrakis(3-methoxy-4-hydroxyphenyl)porphyrin for the NO-sensor and polymeric film of Mn (III) [2.2]paracyclophanylporphyrin was used for the ONOO^−-sensor.
A module of NO/ONOO^− nanosensors (diameter 1-2 μm) with a platinum wire (0.1 mm) counter electrode and saturated calomel reference electrode (SCE) were applied. Differential pulse voltammetry (DPV) and amperometry were performed with a computer-based Gamry VFP600 multichannel potentiostat. DPV was used to measure the basal NO and ONOO^− concentrations, and amperometry was used to measure changes in NO and ONOO^− concentrations from its basal level with time. The DPV current at the peak potential characteristic for NO oxidation (0.65 V) and ONOO^− reduction (−0.45 V) was directly proportional to the local concentrations of these compounds in the immediate vicinity of the sensor. Linear calibration curves (current vs. concentration) were constructed for each sensor from 10 nM to 3 μM before and after measurements with aliquots of NO and ONOO^− standard solutions, respectively. The detection limit of the sensors was 1.0 nM.
The quantification of each analyte (concentration in nM) was performed using a maximum current from amperograms and standard calibration curves. A reproducibility of measurements with nanosensors is relatively high (between 5-12%). […] The sensors were slowly raised 5±2 μm from the surface of a single endothelial cell. The eNOS agonist, calcium ionophore A23187 (CaI) as well as the different drugs were then added to the surrounding media at the cell surface with a nanoinjector that was also positioned by a computer controlled-micromanipulator.
This example describes the genotype-specific response of the three major eNOS variants to 1 μM and 5 μM concentrations of LA-419. The three major genetic polymorphisms studied were the Glu298Asp variant (E298D or 894G→T) in exon 7 of […], the −786T→C variant in the promoter region, and the intron 4 polymorphism (VNTR). All of these variants have possible effects on the cardiovascular system and endothelial dysfunction. For this study, human umbilical vein endothelial cells (HUVECs) from 50 donors between 18 and 32 years of age were used.
For the analysis several analysis techniques were employed. First, the effect of genotype on NO and ONOO^− release was explored within the different concentrations of LA-419 (control, 1 μM, 5 μM), calculated as the average peak release (nmols/L) of NO, ONOO^−, and NO/ONOO^−. The effect of genotype on the net increase in NO, ONOO^−, and NO/ONOO^− for LA-419 (1 μM and 5 μM) as compared to control was also measured. In addition, an analysis was done on the effect of genotype on the % change in NO, ONOO^−, and NO/ONOO^− production for LA-419 (1 μM and 5 μM), calculated as:
% Change=[(avg. LA-419−avg. control)/(avg. control)]*100
Finally, an evaluation was undertaken concerning the effect of genotype on the production of NO, ONOO^−, and NO/ONOO^− as the fold difference of control for LA-419 (1 μM and 5 μM), calculated as:
Fold Difference=(avg. LA-419)/(avg. control)
Within each calculation technique the results were compared for statistical significance using a non-parametric ANOVA Kruskal-Wallace test or a non-parametric Mann-Whitney U test. Statistical significance was set at a p-value <0.05 in a two-tailed distribution. […]

[1] = HUVEC donor Race Caucasian/Black

CC(=O)SC1COC2C(O[N+](=O)[O-])COC12 (stereo not drawn) [LA-419, S-(6-Nitro-oxi-hexahydro-furo[3,2-b]furan-3-1-il)thioacetate]
Fold difference NO/ONOO− (mean ± sd) (G894T G/G, n=10): 1.47 (0.12) | Fold difference ONOO− (mean ± sd) (G894T G/G, n=10): 0.81 (0.04) | Fold difference NO (mean ± sd) (G894T G/T & T/T, n=16): 1.11 (0.05) | Fold difference NO/ONOO− (mean ± sd) (G894T G/T & T/T, n=16): 1.35 (0.10) | Fold difference ONOO− (mean ± sd) (G894T G/T & T/T, n=16): 0.83 (0.07) | Fold difference NO (mean ± sd) (G894T G/T, n=13): 1.12 (0.05) | Fold difference NO/ONOO− (mean ± sd) (G894T G/T, n=13): 1.34 (0.09) | Fold difference ONOO− (mean ± sd) (G894T G/T, n=13): 0.83 (0.06) | Fold difference NO (mean ± sd) (G894T T/T, n=3): 1.11 (0.07) | Fold difference NO/ONOO− (mean ± sd) (G894T T/T, n=3): 1.39 (0.17) | Fold difference ONOO− (mean ± sd) (G894T T/T, n=3): 0.80 (0.12) | Fold difference NO (mean ± sd) (Intron 4 b/a & a/a, n=6): 1.16 (0.06) | Fold difference NO/ONOO− (mean ± sd) (Intron 4 b/a & a/a, n=6): 1.39 (0.11) | Fold difference ONOO− (mean ± sd) (Intron 4 b/a & a/a, n=6): 0.83 (0.05) | Fold difference NO (mean ± sd) (Intron 4 b/a, n=5): 1.16 (0.06) | Fold difference NO/ONOO− (mean ± sd) (Intron 4 b/a, n=5): 1.39 (0.12) | Fold difference ONOO− (mean ± sd) (Intron 4 b/a, n=5): 0.83 (0.05) | Fold difference NO (mean ± sd) (Intron 4 b/b, n=18): 1.13 (0.07) | Fold difference NO/ONOO− (mean ± sd) (Intron 4 b/b, n=18): 1.39 (0.13) | Fold difference ONOO− (mean ± sd) (Intron 4 b/b, n=18): 0.82 (0.06) | Fold difference NO (mean ± sd) (T-786C T/C & C/C, n=16): 1.12 (0.06) | Fold difference NO/ONOO− (mean ± sd) (T-786C T/C & C/C, n=16): 1.36 (0.10) | Fold difference ONOO− (mean ± sd) (T-786C T/C & C/C, n=16): 0.82 (0.06) | Fold difference NO (mean ± sd) (T-786C T/C, n=15): 1.13 (0.06) | Fold difference NO/ONOO− (mean ± sd) (T-786C T/C, n=15): 1.35 (0.09) | Fold difference ONOO− (mean ± sd) (T-786C T/C, n=15): 0.83 (0.04) | Fold difference NO (mean ± sd) (T-786C T/T, n=10): 1.17 (0.08) | Fold difference NO/ONOO− (mean ± sd) (T-786C T/T, n=10): 1.49 (0.14) and 1.45 (0.14) | Fold difference ONOO− (mean ± sd) (T-786C T/T, n=10): 0.82 (0.07) | peak release of NO versus control (LA-419 1 μM (Table c1)): smaller increase | ONOO− production versus control (LA-419 1 μM (Table c2)): no apparent decrease | % Change NO (mean ± sd) [1]: 9.57 (6.43) % | % Change NO/ONOO− (mean ± sd) [1]: 3.77 (26.27) % | % Change ONOO− (mean ± sd) [1]: 9.37 (21.79) % | % Change NO (mean ± sd) (HUVEC donor Race Not Reported): 14.50 (2.19) % | % Change NO/ONOO− (mean ± sd) (HUVEC donor Race Not Reported): 37.24 (1.75) % | % Change ONOO− (mean ± sd) (HUVEC donor Race Not Reported): −16.55 (2.66) % | % Change NO (mean ± sd) (HUVEC donor alpha): −4.73 (18.81) % | % Change NO/ONOO− (mean ± sd) (HUVEC donor alpha): −8.17 (36.37) % | % Change ONOO− (mean ± sd) (HUVEC donor alpha): 16.25 (36.48) % | % Change NO (mean ± sd) (HUVEC donor beta): 21.25 (25.58) % | % Change NO/ONOO− (mean ± sd) (HUVEC donor beta): 61.80 (74.46) % | % Change ONOO− (mean ± sd) (HUVEC donor beta): −18.41 (17.30) % | % Change NO (mean ± sd) (HUVEC donor delta): 8.95 (0) % | % Change NO/ONOO− (mean ± sd) (HUVEC donor delta): 33.68 (0) % | % Change ONOO− (mean ± sd) (HUVEC donor delta): −18.50 (0) % | % Change NO (mean ± sd) (HUVEC donor gamma): 11.74 (17.99) % | % Change NO/ONOO− (mean ± sd) (HUVEC donor gamma): 26.85 (45.85) % | % Change ONOO− (mean ± sd) (HUVEC donor gamma): −6.29 (19.74) % | % Change NO (mean ± sd) (HUVECs G894T variant G/G): 7.77 (18.82) % | % Change NO/ONOO− (mean ± sd) (HUVECs G894T variant G/G): 21.83 (51.78) % | % Change ONOO− (mean ± sd) (HUVECs G894T variant G/G): −2.10 (27.33) % | % Change NO (mean ± sd) (HUVECs G894T variant G/T): 20.99 (29.98) % | % Change NO/ONOO− (mean ± sd) (HUVECs G894T variant G/T): 50.45 (77.28) % | % Change ONOO− (mean ± sd) (HUVECs G894T variant G/T): −9.58 (26.95) % | % Change NO (mean ± sd) (HUVECs G894T variant T/T): 8.69 (18.85) % | % Change NO/ONOO− (mean ± sd) (HUVECs G894T variant T/T): 61.97 (81.82) % | % Change ONOO− (mean ± sd) (HUVECs G894T variant T/T): −25.44 (21.34) % | % Change NO (mean ± sd) (HUVECs Intron 4 variant a/a): −4.57 (24.67) % | % Change NO/ONOO− (mean ± sd) (HUVECs Intron 4 variant a/a): −3.62 (44.56) % | % Change ONOO− (mean ± sd) (HUVECs Intron 4 variant a/a): 9.62 (33.98) % | % Change NO (mean ± sd) (HUVECs Intron 4 variant b/a): 20.51 (28.08) % | % Change NO/ONOO− (mean ± sd) (HUVECs Intron 4 variant b/a): 42.92 (65.15) % | % Change ONOO− (mean ± sd) (HUVECs Intron 4 variant b/a): −6.58 (30.92) % | % Change NO (mean ± sd) (HUVECs Intron 4 variant b/b): 13.46 (23.13) % | % Change NO/ONOO− (mean ± sd) (HUVECs Intron 4 variant b/b): 43.27 (71.09) % | % Change ONOO− (mean ± sd) (HUVECs Intron 4 variant b/b): −10.24 (27.17) % | % Change NO (mean ± sd) (HUVECs Intron 4 variant c/c): −26.76 (0) % | % Change NO/ONOO− (mean ± sd) (HUVECs Intron 4 variant c/c): −26.15 (0) % | % Change ONOO− (mean ± sd) (HUVECs Intron 4 variant c/c): −0.63 (0) % | % Change NO (mean ± sd) (HUVECs T-786C variant C/C): 1.91 (11.63) % | % Change NO/ONOO− (mean ± sd) (HUVECs T-786C variant C/C): 2.52 (35.64) % | % Change ONOO− (mean ± sd) (HUVECs T-786C variant C/C): 11.13 (43.85) % | % Change NO (mean ± sd) (HUVECs T-786C variant T/C): 17.70 (29.53) % | % Change NO/ONOO− (mean ± sd) (HUVECs T-786C variant T/C): 52.82 (77.96) % | % Change ONOO− (mean ± sd) (HUVECs T-786C variant T/C): −12.40 (28.22) % | % Change NO (mean ± sd) (HUVECs T-786C variant T/T): 9.48 (17.79) % | % Change NO/ONOO− (mean ± sd) (HUVECs T-786C variant T/T): 25.48 (51.97) % | % Change ONOO− (mean ± sd) (HUVECs T-786C variant T/T): −5.17 (21.75) % | % Change Ratio, % Change NO/% Change ONOO− (mean ± sd) (LA-419 1 μM, HUVEC donor Race Asian): −0.48 (0) | % Change Ratio, % Change NO/% Change ONOO− (mean ± sd) (LA-419 1 μM, HUVEC donor Race Black): 2.81 (12.60) | % Change Ratio, % Change NO/% Change ONOO− (mean ± sd) (LA-419 1 μM, HUVEC donor Race Not Reported): −0.90 (0.28) | Net increase over control NO (mean ± sd) (LA-419 1 μM, HUVECs G894T + T-786C Combination of all genotypes other than G/G + T/T): 38.70 (72.56) nmols/L
